The molecules below were run on ischemic edema of hind paw of mice (assay: Suppressive action against ischemic edema). Settings: 10 mg/kg intravenous before ischemia; treated paw.
Type: in vivo, ICR-strain male mice
Method: 4. Suppressive Action against Ischemic Edema
The right hind paw of ICR-strain male mice (11 weeks of age) were fastened with a rubber band to stop the blood stream for 20 minutes, and then the rubber band was removed to recover the blood stream. The tested drug was administered intravenously before the treatment. Each of the right and left hind paws were weighed and the suppressive action was measured according to the weight difference between the treated and untreated paws.

| Compound | Paw Weight, Treated |
| --- | --- |
| Oc1ncnc2[nH]ncc12 [Allopurinol] | 283.2 ± 6.3 mg |

Same assay, conditions: 10 mg/kg intravenous before ischemia; untreated paw

| Compound | Paw Weight, Untreated |
| --- | --- |
| Oc1ncnc2[nH]ncc12 [Allopurinol] | 222.9 ± 6.9 mg |

Same assay, conditions: 10 mg/kg intravenous; from weight difference between treated and untreated paws

| Compound | Inhibition (of ischemic edema) |
| --- | --- |
| Oc1ncnc2[nH]ncc12 [Allopurinol] | 36.4% |

What follows are molecules tested against T1, adenosine deaminase of type VII (mucous membrane of intestinal tract of calf) (Bos taurus, UniProt P56658) (assay: Adenosine deaminase inhibiting action). Settings: 25° C., 0.05M phosphate buffer pH 7.5, adenosine substrate, 5 minutes, Lineweaver-Burk plots.
T1 construct: from tissue; host or cells: mucous membrane of intestinal tract of calf
T1 sequence (P56658 1-363): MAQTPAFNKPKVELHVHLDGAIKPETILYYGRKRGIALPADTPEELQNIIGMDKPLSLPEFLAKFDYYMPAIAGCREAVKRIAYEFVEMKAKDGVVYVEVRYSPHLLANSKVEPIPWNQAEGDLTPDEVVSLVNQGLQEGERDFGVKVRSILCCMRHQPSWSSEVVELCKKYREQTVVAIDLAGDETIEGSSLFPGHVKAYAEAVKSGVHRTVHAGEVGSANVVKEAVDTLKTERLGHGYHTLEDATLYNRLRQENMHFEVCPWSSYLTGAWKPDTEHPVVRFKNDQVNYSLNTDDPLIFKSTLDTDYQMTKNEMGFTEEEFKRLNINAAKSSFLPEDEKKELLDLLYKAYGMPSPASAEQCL
Type: biochemical
Method: 1. Adenosine Deaminase Inhibiting Action
The enzymatic reaction was conducted at 25° C. in a 0.05M phosphate buffer (pH=7.5). Thus, a reaction solution comprising 800 μl of substrate solution (adenosine), 100 μl of a solution to be tested and 100 μl of enzyme solution (adenosine deaminase of type VII; mucous membrane of intestinal tract of calf) was reacted for 5 minutes and the reaction was stopped by adding 100 μl of acetic acid. Then the amount of inosine produced was determined by means of an HPLC to measure the inhibiting activity. The test was conducted for various substrate concentrations and Ki values were measured by Lineweaver-Burk plots.

| Compound | Ki |
| --- | --- |
| CCCCCNc1nc(N)c2ncn([C@@H]3O[C@H](CO)[C@@H](O)[C@H]3OC)c2n1 [Compound 52, 2-Pentylamino-2'-O-methyladenosine] | 0.6 µM |
| CO[C@H]1[C@@H](O)[C@H](n2cnc3c(N)nc(Nc4ccccc4)nc32)O[C@@H]1CO [Compound 54, 2-Phenylamino-3'-O-methyladenosine] | 2.2 µM |
| CO[C@@H]1[C@H](OC)[C@@H](CO)O[C@H]1n1cnc2c(N)ncnc21 [Compound 59, 2',3'-O-Dimethyladenosine] | 7.5 µM |
| CNc1nc(Br)nc2c1ncn2[C@@H]1O[C@H](CO)[C@@H](OC)[C@H]1O [Compound 46, 2-Bromo-N^6,3'-O-dimethyladeonsine] | 3.7 µM |
| CO[C@@H]1[C@H](O)[C@@H](CO)O[C@H]1n1cnc2c(N)nc(I)nc21 [Compound 47, 2-Iodo-2'-O-methyladenosine] | 0.23 µM |
| CNc1nc(Br)nc2c1ncn2[C@@H]1O[C@H](CO)[C@@H](O)[C@H]1OC [Compound 45, 2-Bromo-N^6,2'-O-dimethyladenosine] | 0.12 µM |
| CO[C@@H]1[C@H](OC)[C@@H](CO)O[C@H]1n1cnc2c(N)nc(C)nc21 [Compound 63, 2,2',3'-O-Trimethyladenosine] | 1.3 µM |
| CO[C@@H]1[C@H](O)[C@@H](CO)O[C@H]1n1cnc2c(N)nc(Nc3ccccc3)nc21 [Compound 53, 2-Phenylamino-2'-O-methyladenosine] | 0.17 µM |
| CO[C@@H]1[C@H](O)[C@@H](CO)O[C@H]1n1cnc2c(N)ncnc21 [Compound 1, 2'-O-Methyladenosine] | 13.1 µM |
| CO[C@@H]1[C@H](O)[C@@H](CO)O[C@H]1n1cnc2c(N)nc(O)nc21 [Compound 39, 2-Hydroxy-2'-O-methyladenosine] | 19 µM |
| CCCCCCCCCCc1nc(NC)c2ncn([C@@H]3O[C@H](CO)[C@@H](O)[C@H]3OC)c2n1 [Compound 31, N^6,2'-O-Dimethyl-2-decyladenosine] | 0.28 µM |
| CCCCO[C@@H]1[C@H](O)[C@@H](CO)O[C@H]1n1cnc2c(NC)ncnc21 [Compound 22, N^6 -Methyl-2'-O-n-butyladenosine] | 0.0558 µM |
| CNc1nc(Nc2ccccc2)nc2c1ncn2[C@@H]1O[C@H](CO)[C@@H](O)[C@H]1OC [Compound 55, 2-Phenylamino-N^6,2'-O-dimethyladenosine] | 0.013 µM |
| CNc1nc(C)nc2c1ncn2[C@@H]1O[C@H](CO)[C@@H](OC)[C@H]1OC [Compound 64, 2,N^6,2',3'-O-Tetramethyladenosine] | 0.88 µM |
| CCCCCCCCO[C@@H]1[C@H](O)[C@@H](CO)O[C@H]1n1cnc2c(NC)ncnc21 [Compound 24, N^6 -Methyl-2'-O-n-octyladenosine] | 0.11 µM |
| CCCCCCO[C@@H]1[C@H](O)[C@@H](CO)O[C@H]1n1cnc2c(NC)ncnc21 [Compound 23, N^6 -Methyl-2'-O-n-hexyladenosine] | 0.89 µM |
| CNc1ncnc2c1ncn2[C@@H]1O[C@H](CO)[C@@H](OC)[C@H]1OC [Compound 60, N^6,2',3'-O-Trimethyladenosine] | 0.75 µM |
| CO[C@H]1[C@@H](O)[C@H](n2cnc3c(N)nc(-c4ccccc4)nc32)O[C@@H]1CO [Compound 38, 2-Phenyl-3'-O-methyladenosine] | 7.9 µM |
| CCO[C@@H]1[C@H](O)[C@@H](CO)O[C@H]1n1cnc2c(NC)ncnc21 [Compound 21, N^6 -Methyl-2'-O-ethyladenosine] | 0.33 µM |
| CNc1ncnc2c1ncn2[C@@H]1O[C@H](CO)[C@@H](O)[C@H]1OC [Compound 18, N^6,2'-O-Dimethiladenosine] | 1.24 µM |
| CO[C@@H]1[C@H](O)[C@@H](CO)O[C@H]1n1cnc2c(N)nc(N)nc21 [Compound 50, 2-Amino-2'-O-methyladenosine] | 28 µM |

| Compound | Ki |
| --- | --- |
| CO[C@@H]1[C@H](O)[C@@H](CO)O[C@H]1n1cnc2c(N)nc(Br)nc21 [Compound 43, 2-Bromo-2'-O-methyladenosine] | 3.2 µM |
| CCNc1ncnc2c1ncn2[C@@H]1O[C@H](CO)[C@@H](O)[C@H]1OC [Compound 19, N^6 -Ethyl-2'-O-methyladenosine] | 77.8 µM |
| CCCCCCCCCCC#Cc1nc(NC)c2ncn([C@@H]3O[C@H](CO)[C@@H](O)[C@H]3OC)c2n1 [Compound 33, N^6,2'-O-Dimethyl-2-(1-dodecyn-1-yl)-adenosine] | 15 µM |
| CO[C@@H]1[C@H](O)[C@@H](CO)O[C@H]1n1cnc2c(N)nc(C#CCO)nc21 [Compound 57, 2-(3-Hydroxy-1-propyn-1-yl)-2'-O-methyladenosine] | 30 µM |
| CNc1nc(C)nc2c1ncn2[C@@H]1O[C@H](COC)[C@@H](O)[C@H]1O [Compound 34, 2,N^6,5'-O-Trimethyladenosine] | 359 µM |
| CO[C@@H]1[C@H](O)[C@@H](CO)O[C@H]1n1cnc2c(N)nc(-c3ccccc3)nc21 [Compound 37, 2-Phenyl-2'-O-methyladenosine] | 0.66 µM |
| CCCCCCc1nc(NC)c2ncn([C@@H]3O[C@H](CO)[C@@H](O)[C@H]3OC)c2n1 [Compound 30, N^6,2'-O-Dimethyl-2-hexyladenosine] | 0.09 µM |
| CO[C@H]1[C@@H](O)[C@H](n2cnc3c(N)nc(N)nc32)O[C@@H]1CO [Compound 51, 2-Amino-3'-O-methyladenosine] | 5 µM |
| CNc1nc(Nc2ccccc2)nc2c1ncn2[C@@H]1O[C@H](CO)[C@@H](OC)[C@H]1O [Compound 56, 2-Phenylamino-N^6,3'-O-dimethyladenosine] | 0.11 µM |
| CCCCNc1ncnc2c1ncn2[C@@H]1O[C@H](CO)[C@@H](O)[C@H]1OC [Compound 20, N^6-n-Butyl-2'-O-methyladenosine] | 269 µM |
| CCCCO[C@@H]1[C@H](O)[C@@H](CO)O[C@H]1n1cnc2c(N)ncnc21 [Compound 4, 2'-O-n-Butyladenosine] | 3.47 µM |
| CCCCC#Cc1nc(NC)c2ncn([C@@H]3O[C@H](CO)[C@@H](O)[C@H]3OC)c2n1 [Compound 32, N^6,2'-O-Dimethyl-2-(1-hexyn-1-yl)-adenosine] | 0.12 µM |
| CCO[C@@H]1[C@H](OCC)[C@@H](CO)O[C@H]1n1cnc2c(NC)ncnc21 [Compound 61, N^6 -Methyl-2',3'-O-diethyladenosine] | 0.15 µM |
| CNc1ncnc2c1ncn2[C@@H]1O[C@H](COC)[C@@H](O)[C@H]1O [Compound 25, N^6, 5'-O-Dimethyladenosine] | 359 µM |
| CO[C@@H]1[C@H](O)[C@@H](CO)O[C@H]1n1cnc2c(NC3CCCCC3)ncnc21 [Compound 73, N^6 -Cyclohexyl-2'-O-methyladenosine] | 1030 µM |
| CO[C@H]1[C@@H](O)[C@H](n2cnc3c(N)nc(C)nc32)O[C@@H]1CO [Compound 6, 2,3'-O-Dimethyl adenosine] | 179 µM |
| CO[C@@H]1[C@H](O)[C@@H](CO)O[C@H]1n1cnc2c(N)nc(C)nc21 [Compound 5, 2,2'-O-Dimethyl adenosine] | 24.6 µM |
| CO[C@H]1[C@@H](O)[C@H](n2cnc3c(N)nc(I)nc32)O[C@@H]1CO [Compound 48, 2-Iodo-3'-O-methyladeonsine] | 4.4 µM |
| CO[C@H]1[C@@H](O)[C@H](n2cnc3c(N)ncnc32)O[C@@H]1CO [Compound 2, 3'-O-Methyladenosine] | 493 µM |
| CO[C@H]1[C@@H](O)[C@H](n2cnc3c(N)nc(Br)nc32)O[C@@H]1CO [Compound 44, 2-Bromo-3'-O-methyladeonsine] | 22 µM |

From patent US5705491A, “Adenosine deaminase inhibitor” (Nippon Zoki Pharmaceutical Co., Ltd., priority 1992, dated 1998)
